The values that follow come from patent US20250327140A1, “A METHOD OF DETERMINING THE DOSE OF PSYCHEDELICS” (priority 2022, published 2025).

Assay [1] has as its system ABCF1. Nature of the assay: qPCR of ABCF1 transcription in macrophage cell line RAW264.7, dose response with psychedelics. The note with it: RAW264.7, 10 nM, 100 nM, 500 nM, 2 hours post treatment. Format: cell-based, murine. Here is the method:
• 1. Macrophage cell line RAW264.7 (ATCC) were grown to 80% confluency in growth media (DMEM+10% FBS+glutamine). • 2. Dilutions of the drugs were made at desired final concentrations for a Dose response experiment. The concentrations' used for this experiment are: 10 nM, 100 nM, 500 nM for Psilocin, Psylocibin, 4-Acetoxy-N, N-dimthyltryptamine, O-Acetyl Psilocin Fumerate, and 4-acetoxyindole. • 3. Untreated cells were used as negative control and Escitalopram at 0.3 mM was used as a positive control to activate ABCF1 expression for all the experiments. Analysis by qPCR:
• 1. 2 hours post treatment with drugs, the reaction was stopped by removing the media with the drug. Cells were then collected and RNA was isolated from these. • 2. After checking the quality of the RNA, cDNA was generated and qPCR was run with ABCF1 primers as the target gene and GAPDH as the house keeping gene. • 3. Normalized against the expression level of GAPDH, the fold change expression level of ABCF1 was calculated and tabulated for all treatment conditions.
Background: Real-time PCR tracks product formation cycle by cycle.

In assay [2] the test system is ABCF1. The assay can be described thus: real time RT-PCR specific for ABCF1 and IL-4 in RAW macrophages incubated with Escitalopram. The following applies: 0.3 mM, 1 hour. It is filed as cell-based, murine. Here is the method: RAW macrophages were plated at 1×10^5 cells/well and cultured for 2 days. The cells were incubated with 0.3 mM Escitalopram for 1 hour, and then harvested for total RNA, which was extracted for real time RT-PCR specific for ABCF1 and IL-4. CT values were normalized with CT value for the housekeeping gene from the DMSO control.

For assay [3], the system named is ABCF1 promoter (eGFP reporter). Nature of the assay: DC2.4 cells transfected with ABCF1-GFP reporter construct, drug screening by fluorescence. It is filed as cell-based. The note with it: for induction of ABCF1-EGFP-IRES (FIG. 11): DC2.4 cells with ABCF1 GFP construct. From the text:
Cells for use in a high-throughput cell-based screening assay to screen for drugs and genes that stimulate ABCF1 expression were created. In particular, the cells comprise a construct comprising the ABCF1 promoter linked to the sequence encoding eGFP. In the assay, drugs/compositions may be screened for modulating expression of ABCF1 by measuring fluorescence. • 1. DC2.4 cell line was used for the ABCF1-GFP vector (FIG. 7) transfection. DC 2.4 cell line was used as these cells have low endogenous ABCF1 expression. • 2. After 3 days, based on the fluorescent signal, those transfected cells were single cell sorted using cell sorter, compared with DC2.4 cell line without transfection as a negative control. (Those cells with some fluorescent signals were transfected successfully as expected) • 3. Those single cells were collected in a 96 well plate and grown around 2 weeks using DMEM+10% FBS+1% PS, and 12 colonies were picked. • 4. Expended 12 colonies into 24 well plate to grow continuously around 2 weeks with DMEM+10% FBS+1% PS+[…] Hygromycin (selection antibiotics which inserted in the vector) to keep the majority of cells which containing the vector. • 5. 5 colonies were growing well and checked the colonies ABCF1 expression level (checked the GFP reporter in between negative control and positive control (50 uM and 100 μM) to see which colonies is the best to be drug screening cell). • See FIGS. 8 to 11.

On to `CN(C)CCc1c[nH]c2cccc(O)c12` [psylocin, Psilocin], for which the “ABCF1 transcription (fold change vs GAPDH)” value with ABCF1 [1] is recorded as “upregulate”.
Turning to `CN(C)CCC[C@@]1(c2ccc(F)cc2)OCc2cc(C#N)ccc21` [Escitalopram], the “difference in ABCF1 and IL-4 expression after drug treatment (macrophage polarization)” value in the assay with ABCF1 [2] (consistent in 3 separate experiments) was “consistent with polarization towards an M2-like phenotype”. Further, the “ABCF1 induction in a macrophage cell line” value with ABCF1 [2] (real time RT-PCR) is reported as “Induces”. Besides, in assay [3], the “induction of ABCF1-EGFP-IRES (FIG. 11)” value was “induction”.
As for `CC(=O)Oc1cccc2[nH]ccc12` [AOI, 4-acetoxyindole], in assay [3], the “induction of ABCF1-EGFP-IRES (FIG. 11)” value is on record as “induction”. For the same molecule, in assay [3] (after 1 hour drug treatment), the “ABCF1 upregulation (FIG. 10)” value was “upregulates”.
